Data as given in ChEMBL document CHEMBL6127102 (Bioorg Med Chem, 2024).

Legend:
[1] = test system: MDA-MB-231; test: Antitumor activity against human MDA-MB-231 cells harboring wild-type BRCA incubated for 72 hrs by MTT assay; assay type: functional, cell-based; conditions: MDA-MB-231, 72 h
[2] = test system: MDA-MB-468; test: Antitumor activity against human MDA-MB-468 cells harboring wild-type BRCA incubated for 72 hrs by MTT assay; assay type: functional, cell-based; conditions: MDA-MB-468, 72 h
[3] = test system: HCC1937; test: Antitumor activity against BRCA 1-deficient human HCC1937 cells incubated for 72 hrs by MTT assay; assay type: functional, cell-based; conditions: HCC1937, 72 h
[4] = test system: MDA-MB-436; test: Antitumor activity against BRCA 1-deficient human MDA-MB-436 cells incubated for 72 hrs by MTT assay; assay type: functional, cell-based; conditions: MDA-MB-436, 72 h
[5] = Cytotoxicity against human MCF-10A cells incubated for 72 hrs by MTT assay; assay type: toxicity, cell-based

Row | Structure (SMILES) | IC50 [1] [µM] | IC50 [2] [µM] | IC50 [3] [µM] | IC50 [4] [µM] | IC50 at 72 h [5] [µM]
1 | COc1cc(OC)c(/C=C/S(=O)(=O)Cc2ccc(OC)c(NCCCCCC(=O)O)c2)c(OC)c1 | 2.29 | 5.37 | 4.76 | 3.27 | > 40
2 | COc1cc(OC)c(/C=C/S(=O)(=O)Cc2ccc(OC)c(NCC(=O)N3CCN(C(=O)c4cc(Cc5n[nH]c(=O)c6ccccc56)ccc4F)CC3)c2)c(OC)c1 | 1.28 | 1.37 | 1.99 | 1.44 | > 40
3 | COc1cc(OC)c(/C=C/S(=O)(=O)Cc2ccc(OC)c(NC(=O)CCC(=O)N3CCN(C(=O)c4cc(Cc5n[nH]c(=O)c6ccccc56)ccc4F)CC3)c2)c(OC)c1 | 1.19 | 2.94 | 1.27 | 1.55 | > 40
4 | COc1cc(OC)c(/C=C/S(=O)(=O)Cc2ccc(OC)c(NC(=O)CCCC(=O)N3CCN(C(=O)c4cc(Cc5n[nH]c(=O)c6ccccc56)ccc4F)CC3)c2)c(OC)c1 | 2.76 | 3.64 | 2.01 | 1.93 | > 40
5 | COc1cc(OC)c(/C=C/S(=O)(=O)Cc2ccc(OC)c(NC(=O)CCCC(=O)O)c2)c(OC)c1 | 3.57 | 5.76 | 3.92 | 4.82 | > 40
6 | COc1cc(OC)c(/C=C/S(=O)(=O)Cc2ccc(OC)c(NC(=O)CCCCC(=O)N3CCN(C(=O)c4cc(Cc5n[nH]c(=O)c6ccccc56)ccc4F)CC3)c2)c(OC)c1 | 4.57 | 4.85 | 3.69 | 3.76 | > 40
7 | COc1cc(OC)c(/C=C/S(=O)(=O)Cc2ccc(OC)c(NCCCCCC(=O)N3CCN(C(=O)c4cc(Cc5n[nH]c(=O)c6ccccc56)ccc4F)CC3)c2)c(OC)c1 | 2.68 | 4.57 | 3.12 | 2.18 | > 40
